Values after ≈ are worked out from the molar mass of the structure shown.
Key:
[1] = system: S. aureus MRSA clinical isolate; experiment: Antibacterial activity (MIC); format: cell-based, Staphylococcus aureus; details: Staphylococcus aureus; S. aureus MRSA clinical isolate; read-out: MIC
[2] = system: S. pneumoniae PRSP clinical isolate; experiment: Antibacterial activity (MIC/MBC); format: cell-based, Streptococcus pneumoniae; details: Streptococcus pneumoniae, PRSP, read-out: MIC
S. pyogenes CIP 56.41T = experiment: Antibacterial activity (MIC/MBC); format: cell-based, Streptococcus pyogenes; details: Streptococcus pyogenes, CIP56; S. pyogenes CIP 56.41T; read-out: MIC
[3] = system: S. pneumoniae PSSP CQI 201; experiment: Antibacterial activity (MIC); format: cell-based, Streptococcus pneumoniae; details: for MIC: Streptococcus pneumoniae, S. pneumoniae PSSP CQI 201, read-out: MIC
S. pneumoniae mefE = experiment: Antibacterial activity (MIC); format: cell-based; details: Streptococcus pneumoniae; S. pneumoniae mefE (macrolide-resistant by efflux)
[4] = system: Staphylococcus aureus MSSA CIP 4.83; experiment: Antibacterial activity (MIC/MBC); format: cell-based; details: Staphylococcus aureus; S. aureus MSSA CIP 4.83; read-out: MIC
B. fragilis API 7716 = experiment: Antibacterial activity (MIC); format: cell-based; details: Bacteroides fragilis, API7716
C. difficile CIP 104282 = experiment: Antibacterial activity (MIC); format: cell-based, Clostridium difficile; details: Clostridioides difficile, CIP104282; C. difficile CIP 104282; read-out: MIC
[5] = system: E. faecalis VRE VanB CIP106998; experiment: Antibacterial activity (MIC); format: cell-based; details: Enterococcus faecalis; E. faecalis VRE VanB CIP106998; read-out: MIC
[6] = system: Staphylococcus aureus MSSA 53.154; experiment: Murine experimental septicaemia, in vivo efficacy; parameters: species or system mice; details: sc, mice, subcutaneously at 1 and 6 h post infection, survival on day 9, hybrid molecules formulated in water as their bis(hydrochloride) salt, read-out: ED50
Procedure: Experimental septicaemia was induced in mice as follows. Briefly, male Swiss OF1 mice (IFFA CREDO-Charles River) weighing 18 to 20 grams were infected intraperitoneally with 0.5 mL of a bacterial suspension containing 8.5×10^7 cfu of Staphylococcus aureus MSSA 53.154 (Institut Pasteur). The hybrid molecules were administered subcutaneously at 1 and 6 h post infection. Control and treatment groups at each dose were composed of seven mice. All the infected but untreated control mice died within 9 days. The 50% effective dose (ED50) values were calculated by a computerized program (GraphPad) from the survival rates on day 9 after infection.

[7] = system: E. faecium VRE VanA CIP107387; experiment: Antibacterial activity (MIC); format: cell-based; details: Enterococcus faecium; E. faecium VRE VanA CIP107387; read-out: MIC
[8] = system: S. aureus VISA CIP 106757; experiment: Antibacterial activity (MIC); format: cell-based; details: Staphylococcus aureus; S. aureus VISA CIP 106757; read-out: MIC
[9] = system: E. faecalis VRE VanA CIP106996; experiment: Antibacterial activity (MIC); format: cell-based; details: Enterococcus faecalis; E. faecalis VRE VanA CIP106996; read-out: MIC
[10] = system: Human lung fibroblast cells (ATCC CCL-171); experiment: Cytotoxicity (MTT) assay; details: human, 18 hr
Procedure: Cellular toxicity was measured by a colorimetric assay that makes use of the tetrazolium salt, MTT. Human lung fibroblast cells (ATCC CCL-171) were plated in 96-well plates at 10^4 cells per well and incubated under 5% CO2 at 37° C. for 24 hr to allow adherence of cells to the plate. Test compounds were prepared as a stock solution at 1 mg/mL in 1% DMSO/water and diluted with water for the serial dilutions (500-7.8 μg/mL). Cells underwent a 18 hr treatment under 5% CO2 at 37° C. with experimental drugs. Corresponding controls received either no drug treatment or treatment with SDS (sodium dodecyl sulfate). The optical density of each sample was read on a microplate spectrophotometer reader at 600 nm and cell survival was expressed as a fraction of that of untreated controls. A drug is said cytotoxic when this fraction is ≦−30%

[11] = system: S. epidermidis MSCNS (D10); experiment: Antibacterial activity (MIC); format: cell-based; details: Staphylococcus epidermidis; S. epidermidis MSCNS (D10); read-out: MIC
[12] = system: S. pneumoniae PRSP (CQR 162); experiment: Antibacterial activity (MIC); format: cell-based; details: Streptococcus pneumoniae; S. pneumoniae PRSP (CQR 162); read-out: MIC
S. aureus MsrA PUL 5054 = experiment: Antibacterial activity (MIC); format: cell-based; details: Staphylococcus aureus
[13] = system: S. epidermidis MRCNS (E93); experiment: Antibacterial activity (MIC); format: cell-based; details: Staphylococcus epidermidis; S. epidermidis MRCNS (E93); read-out: MIC

MIC [1] | MIC [2] | MIC (S. pyogenes CIP 56.41T) | MIC [3] | MIC (S. pneumoniae mefE) | MIC [4] | MIC (B. fragilis API 7716) | SMILES | also measured
0.156 µg/mL (≈ 0.213 µM) | > 5 µg/mL | 0.039 µg/mL (≈ 0.0531 µM) | 0.039 µg/mL (≈ 0.0531 µM) | 5 µg/mL (≈ 6.81 µM) | 0.156 µg/mL (≈ 0.213 µM) | – | CC[C@H]1OC(=O)[C@H](C)[C@@H](O[C@H]2C[C@@](C)(OC)[C@@H](O)[C@H](C)O2)[C@H](C)[C@@H](O[C@@H]2O[C@H](C)C[C@H](N(C)C)[C@H]2O)[C@](C)(O)C[C@@H](C)C(=O)[C@H](C)[C@@H](O)[C@]1(C)O [Erythromycin, reference compound] | –
– | – | – | – | – | – | 0.2 µg/mL (≈ 1.17 µM) | Cc1ncc([N+](=O)[O-])n1CCO [Metronidazole, reference compound] | –
0.31 µg/mL (≈ 0.32 µM) | > 5 µg/mL | 0.078 µg/mL (≈ 0.0806 µM) | 0.005 µg/mL (≈ 0.00517 µM) | 1.25 µg/mL (≈ 1.29 µM) | 0.156 µg/mL (≈ 0.161 µM) | – | CC[C@@H]1OC(=O)[C@H](C)[C@H](OC2CC(C)(OC)C(O)C(C)O2)[C@@H](C)[C@@H](OC2OC(C)CC(N(C)C)C2O)[C@](C)(O)C[C@@H](C)/C(=N\OCCCNc2ccnc3cc(Cl)ccc23)[C@@H](C)[C@H](O)[C@]1(C)O (stereo partly drawn) [PA 1169, 10{O-[3-(7-Chloroquinolin-4-ylamino)-propyl]-oxime}-erythromycin] | gain in activity (factor) ([3]; Streptococcus pneumoniae PSSP, versus macrolide residue): 8
– | – | – | – | – | – | 0.78 µg/mL (≈ 2.35 µM) | Cc1ncc([N+](=O)[O-])n1CCNc1ccnc2cc(Cl)ccc12 [PA 1129, (7-Chloroquinolin-4-yl)-[2-(2-methyl-5-nitroimidazol-1-yl)-ethyl]-amine] | –

SMILES | MIC [1] | MIC [2] | MIC (S. pyogenes CIP 56.41T) | MIC [3] | MIC (S. pneumoniae mefE) | MIC [4] | MIC (B. fragilis API 7716) | also measured
CN[C@H](CC(C)C)C(=O)N[C@H]1C(=O)N[C@@H](CC(N)=O)C(=O)N[C@H]2C(=O)N[C@H]3C(=O)N[C@H](C(=O)N[C@H](C(=O)O)c4cc(O)cc(O)c4-c4cc3ccc4O)[C@H](O)c3ccc(c(Cl)c3)Oc3cc2cc(c3OC2OC(CO)C(O)C(O)C2OC2CC(C)(NCCCCNc3ccnc4cc(Cl)ccc34)C(O)C(C)O2)Oc2ccc(cc2Cl)[C@H]1O (stereo partly drawn) [PA 1158, N-4-[4(7-Chloroquinolin-4-ylamino)-butyl]-vancomycin] | 0.2 µg/mL (≈ 0.119 µM) | – | 0.062 µg/mL (≈ 0.0369 µM) | 0.012 µg/mL (≈ 0.00713 µM) | – | 0.1 µg/mL (≈ 0.0595 µM) | – | MIC (C. difficile CIP 104282): 0.078 µg/mL (≈ 0.0464 µM); MIC [5]: 6.25 µg/mL (≈ 3.72 µM); ED50 [6]: 0.26 mg/kg; MIC [7]: 25 µg/mL (≈ 14.9 µM); MIC [8]: 0.39 µg/mL (≈ 0.232 µM); MIC [9]: 6.25 µg/mL (≈ 3.72 µM); % of survival cells compared to the untreated controls ([10]; 7.8 μg/mL): −11.8%; % of survival cells compared to the untreated controls ([10]; 15.6 μg/mL): −13.2%; % of survival cells compared to the untreated controls ([10]; 31.2 μg/mL): −10.7%; % of survival cells compared to the untreated controls ([10]; 62.5 μg/mL): −16.9%; % of survival cells compared to the untreated controls ([10]; 125 μg/mL): −16.9%; % of survival cells compared to the untreated controls ([10]; 250 μg/mL): −19.8%; % of survival cells compared to the untreated controls ([10]; 500 μg/mL): −18.4%; MIC [11]: 0.1 µg/mL (≈ 0.0595 µM); MIC [12]: 0.025 µg/mL (≈ 0.0149 µM); MIC (S. aureus MsrA PUL 5054): < 0.045 µg/mL; MIC [13]: 0.05 µg/mL (≈ 0.0297 µM)
